Target: purified human MMP-12 enzyme (Homo sapiens, UniProt P39900)
Assay: MMP-12 FRET assay
Type: biochemical
Conditions: substrate 20 μM, room temperature
Summary of the method: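 Initial fluorescence rate (325/395 nm) of cleavage of MCA-Pro-Leu-Gly-Leu-Dpa(DNP)-Ala-Arg, 20 μM final, was followed for 30 min at room temperature after a 30 min enzyme–compound preincubation. Buffer: 50 mM HEPES pH 7.4, 100 mM NaCl, 5 mM CaCl2, 0.005% Brij-35, with 10% final DMSO. IC50 came from a Hill-type fit of rate versus inhibitor concentration.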

purified human MMP-12 enzyme, sequence (P39900 106-470): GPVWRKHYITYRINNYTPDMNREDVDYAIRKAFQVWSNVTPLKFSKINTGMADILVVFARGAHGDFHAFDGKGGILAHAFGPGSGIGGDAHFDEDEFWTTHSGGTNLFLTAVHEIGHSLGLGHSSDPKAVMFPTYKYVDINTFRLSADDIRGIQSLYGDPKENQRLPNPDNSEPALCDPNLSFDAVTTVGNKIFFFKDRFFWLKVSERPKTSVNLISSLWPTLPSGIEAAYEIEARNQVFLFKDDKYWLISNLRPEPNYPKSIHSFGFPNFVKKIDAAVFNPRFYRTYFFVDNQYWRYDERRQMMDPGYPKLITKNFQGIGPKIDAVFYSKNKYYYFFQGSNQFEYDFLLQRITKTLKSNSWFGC

Row | SMILES | IC50 [nM]
1 | CC(C)[C@@H](NS(=O)(=O)c1ccc2oc3cc(-c4cn[nH]c4)ccc3c2c1)C(=O)O [Compound 103, (R)-2-(7-(1H-pyrazol-4-yl)dibenzo[b,d]furan-2-sulfonamido)-3-methylbutanoic acid] | 16
2 | Cc1nc(-c2ccc3oc4cc(S(=O)(=O)N[C@H](C(=O)O)C(C)C)ccc4c3c2)sc1C [Compound 305, (S)-2-(8-(4,5-dimethylthiazol-2-yl)dibenzo[b,d]furan-3-sulfonamido)-3-methylbutanoic acid] | 1.6
3 | CC(C)Cc1ncc(-c2ccc3c(c2)oc2ccc(S(=O)(=O)N[C@@H](C(=O)O)C(C)C)cc23)s1 [Compound 244, (R)-2-(7-(2-isobutylthiazol-5-yl)dibenzo[b,d]furan-2-sulfonamido)-3-methylbutanoic acid] | 3.4
4 | CC(C)[C@@H](NS(=O)(=O)c1ccc2oc3cc(-c4nc5ccc(C(F)(F)F)cc5s4)ccc3c2c1)C(=O)O [Compound 302, (R)-3-methyl-2-(7-(6-(trifluoromethyl)benzo[d]thiazol-2-yl)dibenzo[b,d]furan-2-sulfonamido)butanoic acid] | 28
5 | CC(C)[C@H](NS(=O)(=O)c1ccc2c(c1)oc1ccc(-c3noc(C4CCOCC4)n3)cc12)C(=O)O [Compound 260, (S)-3-methyl-2-(8-(5-(tetrahydro-2H-pyran-4-yl)-1,2,4-oxadiazol-3-yl)dibenzo[b,d]furan-3-sulfonamido)butanoic acid] | 1.7
6 | CC(C)[C@H](NS(=O)(=O)c1ccc2c(c1)oc1ccc(-c3nc4c(s3)CCCC4)cc12)C(=O)O [Compound 307, (S)-3-methyl-2-(8-(4,5,6,7-tetrahydrobenzo[d]thiazol-2-yl)dibenzo[b,d]furan-3-sulfonamido)butanoic acid] | < 1.5
7 | CC(C)NC(=N)c1ccc2oc3cc(S(=O)(=O)N[C@H](C(=O)O)C(C)C)ccc3c2c1 [Compound 76, (S)-2-(8-(N-isopropylcarbamimidoyl)dibenzo[b,d]furan-3-sulfonamido)-3-methylbutanoic acid] | 18
8 | CC(C)C[C@@H](NS(=O)(=O)c1ccc2oc3cc(-c4noc(C(C)(C)C)n4)ccc3c2c1)C(=O)O [Compound 278, (R)-2-(7-(5-tert-butyl-1,2,4-oxadiazol-3-yl)dibenzo[b,d]furan-2-sulfonamido)-4-methylpentanoic acid] | 7.2
9 | CC(C)[C@H](NS(=O)(=O)c1ccc2c(c1)oc1ccc(-c3nc4c(F)c(F)c(F)cc4s3)cc12)C(=O)O [Compound 222, (S)-3-methyl-2-(8-(4,5,6-trifluorobenzo[d]thiazol-2-yl)dibenzo[b,d]furan-3-sulfonamido)butanoic acid] | 4.9
10 | CC(C)[C@H](NS(=O)(=O)c1ccc2c(c1)oc1ccc(-c3ccc4c(c3)C(C)(C)OC(=O)N4)cc12)C(=O)O [Compound 4, (S)-2-(8-(4,4-dimethyl-2-oxo-2,4-dihydro-1H-benzo[d][1,3]oxazin-6-yl)dibenzo[b,d]furan-3-sulfonamido)-3-methylbutanoic acid] | 12.2
11 | CC(C)[C@H](NS(=O)(=O)c1ccc2c(c1)oc1ccc(C3CCCC3)cc12)C(=O)O [Compound 71, (S)-2-(8-cyclopentyldibenzo[b,d]furan-3-sulfonamido)-3-methylbutanoic acid] | < 1.5
12 | CC(C)[C@H](NS(=O)(=O)c1ccc2c(c1)oc1ccc(-c3nc4ccc(F)cc4s3)cc12)C(=O)O [Compound 209, (S)-2-(8-(6-fluorobenzo[d]thiazol-2-yl)dibenzo[b,d]furan-3-sulfonamido)-3-methylbutanoic acid] | < 1.5
13 | CC(C)[C@@H](NS(=O)(=O)c1ccc2oc3cc(-c4cncnc4)ccc3c2c1)C(=O)O [Compound 167, (R)-3-methyl-2-(7-(pyrimidin-5-yl)dibenzo[b,d]furan-2-sulfonamido)butanoic acid] | < 1.5
14 | CC(C)[C@H](NS(=O)(=O)c1ccc2c(c1)oc1ccc(-c3ncc(CO)s3)cc12)C(=O)O [Compound 215, (S)-2-(8-(5-(hydroxymethyl)thiazol-2-yl)dibenzo[b,d]furan-3-sulfonamido)-3-methylbutanoic acid] | 2.4
15 | CC(C)C[C@H](NS(=O)(=O)c1ccc2oc3cc(-c4noc(C(C)(C)C)n4)ccc3c2c1)C(=O)O [Compound 279, (S)-2-(7-(5-tert-butyl-1,2,4-oxadiazol-3-yl)dibenzo[b,d]furan-2-sulfonamido)-4-methylpentanoic acid] | 61
16 | CC(C)[C@@H](NS(=O)(=O)c1ccc2oc3cc(-c4noc(CC5CCCC5)n4)ccc3c2c1)C(=O)O [Compound 191, (R)-2-(7-(5-(cyclopentylmethyl)-1,2,4-oxadiazol-3-yl)dibenzo[b,d]furan-2-sulfonamido)-3-methylbutanoic acid] | 3.3

The remaining lines, values ahead:

Row | IC50 [nM] | SMILES
17 | 5.4 | CC(C)[C@H](NS(=O)(=O)c1ccc2c(c1)oc1ccc(C3=CCNCC3)cc12)C(=O)O [Compound 70, (S)-3-methyl-2-(8-(1,2,3,6-tetrahydropyridin-4-yl)dibenzo[b,d]furan-3-sulfonamido)butanoic acid]
18 | 9.1 | CC(C)[C@@H](NS(=O)(=O)c1ccc2oc3cc(-c4ccc(-c5ccccc5)s4)ccc3c2c1)C(=O)O [Compound 289, (R)-3-methyl-2-(7-(5-phenylthiophen-2-yl)dibenzo[b,d]furan-2-sulfonamido)butanoic acid]
19 | 15 | CC(C)[C@@H](NS(=O)(=O)c1ccc2oc3cc(-c4nc(C(F)(F)F)c(Cl)s4)ccc3c2c1)C(=O)O [Compound 295, (R)-2-(7-(5-chloro-4-(trifluoromethyl)thiazol-2-yl)dibenzo[b,d]furan-2-sulfonamido)-3-methylbutanoic acid]
20 | 740 | Cc1nc(-c2ccc(C(F)(F)F)cc2)sc1-c1ccc2c(c1)oc1ccc(S(=O)(=O)N[C@@H](C(=O)O)C(C)C)cc12 [Compound 177, (R)-3-methyl-2-(7-(4-methyl-2-(4-(trifluoromethyl)phenyl)thiazol-5-yl)dibenzo[b,d]furan-2-sulfonamido)butanoic acid]
21 | 15 | CC(C)(C)c1nc(-c2ccc3c(c2)oc2ccc(S(=O)(=O)N[C@@H](Cc4c[nH]c5ccccc45)C(=O)O)cc23)no1 [Compound 280]
22 | 17 | O=C(O)CNS(=O)(=O)c1ccc2c(c1)oc1ccc(-c3nccs3)cc12 [Compound 251, 2-(8-(thiazol-2-yl)dibenzo[b,d]furan-3-sulfonamido)acetic acid]
23 | 227 | Cc1nn(C)c(C)c1-c1ccc2c(c1)oc1ccc(S(=O)(=O)N[C@@H](C(=O)O)C(C)C)cc12 [Compound 174, (R)-3-methyl-2-(7-(1,3,5-trimethyl-1H-pyrazol-4-yl)dibenzo[b,d]furan-2-sulfonamido)butanoic acid]
24 | 1.7 | Cc1nnc(-c2ccc3oc4cc(S(=O)(=O)N[C@H](C(=O)O)C(C)C)ccc4c3c2)s1 [Compound 146, (S)-3-methyl-2-(8-(5-methyl-1,3,4-thiadiazol-2-yl)dibenzo[b,d]furan-3-sulfonamido)butanoic acid]
25 | < 1.5 | CC(C)[C@H](NS(=O)(=O)c1ccc2c(c1)oc1cc(-c3ccc(Cl)o3)ccc12)C(=O)O [Compound 80, (S)-2-(7-(5-chlorofuran-2-yl)dibenzo[b,d]furan-3-sulfonamido)-3-methylbutanoic acid]
26 | 6.9 | Cc1nc(-c2ccc3c(c2)oc2cc(S(=O)(=O)N[C@H](C(=O)O)C(C)C)ccc23)no1 [Compound 156, (S)-3-methyl-2-(7-(5-methyl-1,2,4-oxadiazol-3-yl)dibenzo[b,d]furan-3-sulfonamido)butanoic acid]
27 | 17 | CC(C)[C@H](NS(=O)(=O)c1ccc2c(c1)oc1ccc(-c3ccc4oc5cc(S(=O)(=O)N[C@H](C(=O)O)C(C)C)ccc5c4c3)cc12)C(=O)O [Compound 125]
28 | 290 | COc1ncc(-c2ccc3c(c2)oc2ccc(S(=O)(=O)N[C@@H](C(=O)O)C(C)C)cc23)c(OC)n1 [Compound 115, (R)-2-(7-(2,4-dimethoxypyrimidin-5-yl)dibenzo[b,d]furan-2-sulfonamido)-3-methylbutanoic acid]
29 | < 1.5 | CC(C)[C@H](NS(=O)(=O)c1ccc2c(c1)oc1ccc(-c3noc(-c4ccc(F)cc4)n3)cc12)C(=O)O [Compound 272, (S)-2-(8-(5-(4-fluorophenyl)-1,2,4-oxadiazol-3-yl)dibenzo[b,d]furan-3-sulfonamido)-3-methylbutanoic acid]
30 | < 1.5 | CC(C)[C@H](NS(=O)(=O)c1ccc2c(c1)oc1ccc(-c3sc(Cl)cc3Cl)cc12)C(=O)O [Compound 75, (S)-2-(8-(3,5-dichlorothiophen-2-yl)dibenzo[b,d]furan-3-sulfonamido)-3-methylbutanoic acid]
31 | 175 | CC(C)[C@H](NS(=O)(=O)c1ccc2c(c1)oc1ccc(C(=N)N3CCCC3)cc12)C(=O)O [Compound 127, (S)-2-(8-(imino(pyrrolidin-1-yl)methyl)dibenzo[b,d]furan-3-sulfonamido)-3-methylbutanoic acid]
32 | < 1.5 | CC(C)[C@H](NS(=O)(=O)c1ccc2c(c1)oc1ccc(-c3ccc(C(F)(F)F)s3)cc12)C(=O)O [Compound 131, (S)-3-methyl-2-(8-(5-(trifluoromethyl)thiophen-2-yl)dibenzo[b,d]furan-3-sulfonamido)butanoic acid]
33 | 5.6 | CC(C)[C@H](NS(=O)(=O)c1ccc2c(c1)oc1ccc(-c3ccc(C(C)(C)C)o3)cc12)C(=O)O [Compound 198, (S)-2-(8-(5-tert-butylfuran-2-yl)dibenzo[b,d]furan-3-sulfonamido)-3-methylbutanoic acid]
34 | < 1.5 | CC(C)[C@H](NS(=O)(=O)c1ccc2c(c1)oc1ccc(-c3nc4cc(F)ccc4s3)cc12)C(=O)O [Compound 219, (S)-2-(8-(5-fluorobenzo[d]thiazol-2-yl)dibenzo[b,d]furan-3-sulfonamido)-3-methylbutanoic acid]
35 | < 1.5 | CC(C)[C@H](NS(=O)(=O)c1ccc2c(c1)oc1cc(-c3ccc(Cl)s3)ccc12)C(=O)O [Compound 84, (S)-2-(7-(5-chlorothiophen-2-yl)dibenzo[b,d]furan-3-sulfonamido)-3-methylbutanoic acid]

— patent publication US20100227859A1, “TRICYCLIC COMPOUNDS AS MATRIX METALLOPROTEINASE INHIBITORS” (priority 2007, published 2010)
